Results from patent US20190358181A1, “METHODS FOR AUTISM SPECTRUM DISORDER PHARMACOTHERAPY” (priority 2017, published 2019).

Test system: 610 metabolites from 63 biochemical pathways
Assay: Targeted broad-spectrum plasma metabolomic analysis (LC-MS/MS), paired pre-infusion vs post-infusion (2-days and 6-weeks)
Assay type: in vivo, human
Conditions: for Linear Ratio / VIP Score / Z Abs / Z Score: plasma
Protocol: Targeted, broad-spectrum, plasma metabolomic analysis of 610 metabolites from 63 biochemical pathways was performed by high performance liquid chromatography and tandem mass spectrometry (LC-MS/MS) on the samples collected from patients in Example 1. Venous blood was collected between the hours of 8 am and 5 pm, at least 3 hours after the last meal, into lithium-heparin vacutainer tubes (BD #367884). Plasma was separated by centrifugation at 900 g×10 minutes at room temperature within one hour of collection. The resulting fresh lithium-heparin plasma was transferred to labeled 1.2 ml or 2.0 ml externally threaded cryotubes with a minimum headspace air gap for storage at −80° C. for analysis. Samples were analyzed on an AB SCIEX QTRAP 5500 triple quadrupole mass spectrometer equipped with a Turbo V electrospray ionization (ESI) source, Shimadzu LC-20A UHPLC system, and a PAL CTC autosampler. Typically, 90 μl of plasma was thawed on ice and transferred to a 1.7 ml Eppendorf tube. Five (5.0) μl of a cocktail containing 25-35 commercial stable isotope internal standards, and 5.0 μl of 57 stable isotope internal standards that were custom-synthesized in E. coli NCM3722, Caenorhabditis elegans N2, and Komagataella phaffii (ATCC 76273; formerly known as Pichia pastoris) by metabolic labeling with 13C-glucose and 13C-bicarbonate, were added, mixed, and incubated for 10 min at 20° C. to permit small molecules and vitamins in the internal standards to associate with plasma binding proteins. Macromolecules (protein, DNA, RNA, glycans, etc.) were precipitated by extraction with 4 volumes (400 μl) of cold (−20° C.), acetonitrile:methanol (50:50) (LCMS grade, Cat #LC015-2.5 and GC230-4, Burdick & Jackson, Honeywell), vortexed vigorously, and incubated on crushed ice for 10 min, then removed by centrifugation at 16,000 g×10 min at 4° C. The supernatants containing the extracted metabolites and internal standards in the resulting 40:40:20 solvent mix of acetonitrile:methanol:water were transferred to labeled cryotubes and stored at −80° C. for LCMS/MS analysis.
LC-MS/MS analysis was performed by scheduled multiple reaction monitoring (sMRM) under Analyst v1.6.2 software control in both negative and positive mode with rapid polarity switching (50 ms). Nitrogen was used for curtain gas (set to 30), collision gas (set to high), ion source gas 1 and 2 (set to 35). The source temperature was 500° C. Spray voltage was set to −4500 V in negative mode and 5500 V in positive mode. The values for Q1 and Q3 mass-to-charge ratios (m/z), declustering potential (DP), entrance potential (EP), collision energy (CE), and collision cell exit potential (CXP) were determined and optimized for each MRM for each metabolite. Ten microliters of extract was injected by PAL CTC autosampler via a 10 μl stainless steel loop into a 250 mm×2.0 mm, 4 μm polymer based NH2 HPLC column (Asahipak NH2P-40 2E, Showa Denko America, Inc., NY) held at 25° C. for chromatographic separation. The mobile phase was solvent A: 95% water with 20 mM (NH4)2CO3 (Sigma, Fluka Cat #74415-250G-F), 5% acetonitrile, and 38 mM NH4OH (Sigma, Fluka Cat #17837-100ML), final pH 9.75; solvent B: 100% acetonitrile. Separation was achieved using the following gradient: 0-3.5 min: 95% B, 3.6-8 min: 85% B, 8.1-13 min: 75% B, 13.5-35 min: 0% B, 36-46 min: 95% B, 46.1 min: end. The flow rate was 200 μl/min. Pump pressures ranged from 920-2600 psi over the course of the gradient. All the samples were kept at 4° C. during analysis. The chromatographic peaks were identified using MultiQuant (v3.0, Sciex), confirmed by manual inspection, and the peak areas integrated. […]

[1] = Fatty Acid Oxidation and Synthesis, 6-weeks
[2] = GABA, Glutamate, Arginine, Ornithine, Proline, 6-weeks
[3] = GABA, Glutamate, Arginine, Ornithine, 2-days
[4] = Gamma-Glutamyl and other Dipeptides, 2-days
[5] = Gamma-Glutamyl and other Dipeptides, 6-weeks
[6] = Gamma-glutamyl-Alanine, 6-weeks
[7] = Glycolysis and Gluconeogenesis Metabolism, 2-days
[8] = Glycolysis and Gluconeogenesis Metabolism, 6-weeks
[9] = Glycosphingolipid Metabolism, 2-days
[10] = Hexose Disaccharide Pool, 6-weeks
[11] = Histidine, Histamine, Carnosine Metabolism, 2-days
[12] = Histidine, Histamine, Carnosine Metabolism, 6-weeks
[13] = Nitric Oxide, Superoxide, Peroxide Metabolism, 6-weeks
[14] = Nitric Oxide, Superoxide, Peroxide, 2-days
[15] = Phospholipid Metabolism, 2-days
[16] = Phospholipid Metabolism, 6-weeks

## Cc1ccc(C(=O)Nc2ccc(S(=O)(=O)O)c3cc(S(=O)(=O)O)cc(S(=O)(=O)O)c23)cc1NC(=O)c1cccc(NC(=O)Nc2cccc(C(=O)Nc3cc(C(=O)Nc4ccc(S(=O)(=O)O)c5cc(S(=O)(=O)O)cc(S(=O)(=O)O)c45)ccc3C)c2)c1 [Suramin, suramin]
[1]
  Increased: 0
  Observed Hits in the Top 48 Metabolites: 3
[2]
  Decreased: 0
  Fold Enrichment (Obs/Exp): 3.0
  Fraction of Impact (VIP Score) Explained (% of 94.6): 4%
  Impact (Sum VIP Score): 3.9
  Increased: 2
  Observed Hits in the Top 48 Metabolites: 2
[3]
  Decreased: 0
  Fold Enrichment (Obs/Exp): 3.5
  Fraction of Impact (VIP Score) Explained (% of 119.7): 4%
  Impact (Sum VIP Score): 4.7
  Increased: 3
  Observed Hits in the Top 61 Metabolites: 3
[4]
  Decreased: 0
  Fold Enrichment (Obs/Exp): 7.1
  Fraction of Impact (VIP Score) Explained (% of 119.7): 3%
  Impact (Sum VIP Score): 3.8
  Increased: 2
  Observed Hits in the Top 61 Metabolites: 2
[5]
  Decreased: 0
  Fold Enrichment (Obs/Exp): 4.5
  Fraction of Impact (VIP Score) Explained (% of 94.6): 2%
  Impact (Sum VIP Score): 2.4
  Increased: 1
  Observed Hits in the Top 48 Metabolites: 1
[6]
  Linear Ratio: 1.644
  VIP Score: 2.353
  Z Abs: 1.725
  Z Score: 1.725
Glycerol 3-phosphate, 6-weeks
  Linear Ratio: 1.294
  VIP Score: 2.081
  Z Abs: 1.731
  Z Score: 1.731
Glycine, 6-weeks
  Linear Ratio: 1.392
  VIP Score: 2.523
  Z Abs: 1.891
  Z Score: 1.891
Glycocholic acid, 6-weeks
  Linear Ratio: 2.270
  VIP Score: 1.956
  Z Abs: 1.945
  Z Score: 1.945
[7]
  Decreased: 0
  Fold Enrichment (Obs/Exp): 2.0
  Fraction of Impact (VIP Score) Explained (% of 119.7): 4%
  Impact (Sum VIP Score): 4.3
  Increased: 2
  Observed Hits in the Top 61 Metabolites: 2
[8]
  Decreased: 0
  Fold Enrichment (Obs/Exp): 1.3
  Fraction of Impact (VIP Score) Explained (% of 94.6): 2%
  Impact (Sum VIP Score): 2.1
  Increased: 1
  Observed Hits in the Top 48 Metabolites: 1
[9]
  Decreased: 0
  Fold Enrichment (Obs/Exp): 0.6
  Fraction of Impact (VIP Score) Explained (% of 119.7): 2%
  Impact (Sum VIP Score): 2.1
  Increased: 1
  Observed Hits in the Top 61 Metabolites: 1
Guanidinoacetic acid, 6-weeks
  Linear Ratio: 1.217
  VIP Score: 1.644
  Z Abs: 1.254
  Z Score: 1.254
[10]
  Linear Ratio: 2.121
  VIP Score: 1.911
  Z Abs: 1.220
  Z Score: 1.220
Hippuric acid, 6-weeks
  Linear Ratio: 1.602
  VIP Score: 1.559
  Z Abs: 0.881
  Z Score: 0.881
Histamine, 6-weeks
  Linear Ratio: 1.219
  VIP Score: 2.279
  Z Abs: 1.312
  Z Score: 1.312
[11]
  Decreased: 0
  Fold Enrichment (Obs/Exp): 1.8
  Fraction of Impact (VIP Score) Explained (% of 119.7): 2%
  Impact (Sum VIP Score): 1.8
  Increased: 1
  Observed Hits in the Top 61 Metabolites: 1
[12]
  Decreased: 0
  Fold Enrichment (Obs/Exp): 2.2
  Fraction of Impact (VIP Score) Explained (% of 94.6): 2%
  Impact (Sum VIP Score): 2.3
  Increased: 1
  Observed Hits in the Top 48 Metabolites: 1
Hydroxyproline, 6-weeks
  Linear Ratio: 1.210
  VIP Score: 2.039
  Z Abs: 3.005
  Z Score: 3.005
Krebs Cycle, 2-days
  Decreased: 0
  Fold Enrichment (Obs/Exp): 1.6
  Fraction of Impact (VIP Score) Explained (% of 119.7): 3%
  Impact (Sum VIP Score): 3.3
  Increased: 2
  Observed Hits in the Top 61 Metabolites: 2
Krebs Cycle, 6-weeks
  Decreased: 0
  Fold Enrichment (Obs/Exp): 2.0
  Fraction of Impact (VIP Score) Explained (% of 94.6): 5%
  Impact (Sum VIP Score): 4.3
  Increased: 2
  Observed Hits in the Top 48 Metabolites: 2
L-Asparagine, 6-weeks
  Linear Ratio: 1.360
  VIP Score: 1.824
  Z Abs: 1.581
  Z Score: 1.581
L-Cystine, 6-weeks
  Linear Ratio: 1.190
  VIP Score: 1.774
  Z Abs: 1.060
  Z Score: 1.060
L-Kynurenine, 6-weeks
  Linear Ratio: 1.303
  VIP Score: 2.096
  Z Abs: 1.751
  Z Score: 1.751
L-Phenylalanine, 6-weeks
  Linear Ratio: 1.245
  VIP Score: 1.875
  Z Abs: 1.381
  Z Score: 1.381
L-Proline, 6-weeks
  Linear Ratio: 1.196
  VIP Score: 1.546
  Z Abs: 0.749
  Z Score: 0.749
L-Serine, 6-weeks
  Linear Ratio: 1.152
  VIP Score: 1.505
  Z Abs: 0.954
  Z Score: 0.954
Lathosterol, 6-weeks
  Linear Ratio: 1.284
  VIP Score: 1.844
  Z Abs: 1.079
  Z Score: 1.079
Methionine sulfoxide, 6-weeks
  Linear Ratio: 1.409
  VIP Score: 2.104
  Z Abs: 2.083
  Z Score: 2.083
Mevalonic acid, 6-weeks
  Linear Ratio: 1.386
  VIP Score: 1.673
  Z Abs: 1.036
  Z Score: 1.036
Microbiome Metabolism, 2-days
  Decreased: 0
  Fold Enrichment (Obs/Exp): 1.6
  Fraction of Impact (VIP Score) Explained (% of 119.7): 8%
  Impact (Sum VIP Score): 9.3
  Increased: 4
  Observed Hits in the Top 61 Metabolites: 4
Microbiome Metabolism, 6-weeks
  Decreased: 0
  Fold Enrichment (Obs/Exp): 2.0
  Fraction of Impact (VIP Score) Explained (% of 94.6): 9%
  Impact (Sum VIP Score): 8.4
  Increased: 4
  Observed Hits in the Top 48 Metabolites: 4
[13]
  Decreased: 0
  Fold Enrichment (Obs/Exp): 4.5
  Fraction of Impact (VIP Score) Explained (% of 94.6): 2%
  Impact (Sum VIP Score): 2.2
  Increased: 1
  Observed Hits in the Top 48 Metabolites: 1
[14]
  Decreased: 1
  Fold Enrichment (Obs/Exp): 3.5
  Fraction of Impact (VIP Score) Explained (% of 119.7): 2%
  Impact (Sum VIP Score): 1.9
  Increased: 0
  Observed Hits in the Top 61 Metabolites: 1
Octanoylcarnitine, 6-weeks
  Linear Ratio: 0.703
  VIP Score: 1.780
  Z Abs: 1.451
  Z Score: −1.451
PE (18:0/18:0), 6-weeks
  Linear Ratio: 0.644
  VIP Score: 1.555
  Z Abs: 1.331
  Z Score: −1.331
[15]
  Decreased: 3
  Fold Enrichment (Obs/Exp): 0.3
  Fraction of Impact (VIP Score) Explained (% of 119.7): 5%
  Impact (Sum VIP Score): 5.7
  Increased: 0
  Observed Hits in the Top 61 Metabolites: 3
[16]
  Decreased: 1
  Fold Enrichment (Obs/Exp): 0.1
  Fraction of Impact (VIP Score) Explained (% of 94.6): 2%
  Impact (Sum VIP Score): 1.6
  Increased: 0
  Observed Hits in the Top 48 Metabolites: 1
Purine Metabolism, 2-days
  Decreased: 5
  Fold Enrichment (Obs/Exp): 2.4
